Consider nine compounds from patent US7994185B2, “Benzene sulfonamide thiazole and oxazole compounds” (Glaxo Smith Kline LLC, priority 2008, dated 2011).

Read-outs that look alike come from different tables or passages of the source.

Experiment [1] concerns Human colon tumor cells (Colo205). Kind of experiment: Cell growth inhibition assay (CellTiter-Glo), Colo205. In kind it is cell-based. The procedure: Human colon tumor cells (Colo205) were cultured in RPMI (Mediatech 50-020-PB) containing 10% FBS and 1% penicillin-streptomycin.
The next day, compounds were diluted as follow: For 96-well assays, 13.5 μL of compound in DMSO were diluted using nine (9) serial 1:3 dilutions of 4.5 μL in 9 μL of DMSO. Medium (270 μL/well of RPMI with 10% FBS and 1% penicillin-streptomycin) was added to the plates. Aliquots (7 μL) were added to cells in the final assay giving a final DMSO concentration of 0.2%. For 384-well assays, 15 μL of compound in DMSO were diluted using nine (9) serial 1:3 dilutions of 5 μL in 10 μL of DMSO, followed by a further dilution of 5 μL of compound with 95 μL of medium, of which 2 μL were added to cells in the final assay giving a final DMSO concentration of 0.2%. Cells were incubated at 37° C., 5% CO2 for 3 days.
Total ATP was measured (as a surrogate estimate of cell number) using CellTiter-Glo® reagent (Promega G7571). Briefly, plates were removed from the incubator and allowed to equilibrate to room temperature for 30 minutes. CellTiter-Glo® (25 μL or 55 μL for 384-well or 96-well assays, respectively) reagent was added to each well and plates were shaken on an orbital plate shaker for 2 minutes. Plates were incubated without shaking for a further 30 minutes and read on an LJL Analyst GT reader in luminometer mode with an integration time of 0.5 seconds per well. Percent inhibition of cell growth was calculated relative to DMSO vehicle-treated control wells.
On the technique in general: Cellular ATP, detected with luciferase, serves as a proxy for viable cell number.

Experiment [2] concerns the target T1, BRAFV600E full-length (amino acids 2-766) (Homo sapiens, UniProt P15056, V600E).
T1 construct: His6-tagged BRAFV600E full-length (amino acids 2-766); His6; made in house; host or cells: baculovirus expression system (insect cells)
Kind of experiment: B-Raf Accelerated MEK ATPase assay (BRAMA). Conditions: categorized. The class given is biochemical. Here is the method:
Compounds of the present invention were tested for B-Raf protein serine kinase inhibitory activity in a B-Raf Accelerated MEK ATPase assay (BRAMA). […] The BRAMA assay is a high sensitivity assay which measures an intrinsic MEK-mediated ATP hydrolysis uncoupled from downstream ERK phosphorylation by coupling the formation of ADP to NADH oxidation through the enzymes pyruvate kinase and lactate dehydrogenase. When ADP production is initiated by addition of catalytic amounts of an activated Raf enzyme and non-phosphorylated MEK, one observes robust ADP production concomitant with Raf-mediated phosphorylation of MEK. The method is disclosed in: C. Rominger, M. Schaber, E. May. Assay for B-Raf Activity Based on Intrinsic MEK ATPase Activity.

For experiment [3], the system named is Human melanoma cancer cells (SK-MEL-28). The experiment is described as follows: Cell growth inhibition assay (CellTiter-Glo), SK-MEL-28. In kind it is cell-based.
[4] abbreviates: COLO 205, 72 h, Table 2a, 3 days incubation, read-out: Activity in Colo205 Tumor Cells.
[5] abbreviates: COLO 205, Table 2b, later runs, average for the one or more runs, categorized, read-out: IC50 for Colo205.
Setting [6] is: B-Raf Activity, Table 1a, highest pIC50 for the one or more runs.
Setting [7] is: B-Raf pIC50, Table 1b, later runs, average pIC50 for the one or more runs.
Setting [8] is: SK-MEL-28, 72 h, Table 3a, 3 days incubation, read-out: Activity in SK-MEL-28 Tumor Cells.
Where [9] appears, read: SK-MEL-28, Table 3b, later runs, average for the one or more runs, categorized, read-out: IC50 for SK-MEL-28.
Where [10] appears, read: Table 1b, later runs, average pIC50 for the one or more runs, read-out: B-Raf pIC50 (converted).

T1 sequence (P15056 2-766 V600E): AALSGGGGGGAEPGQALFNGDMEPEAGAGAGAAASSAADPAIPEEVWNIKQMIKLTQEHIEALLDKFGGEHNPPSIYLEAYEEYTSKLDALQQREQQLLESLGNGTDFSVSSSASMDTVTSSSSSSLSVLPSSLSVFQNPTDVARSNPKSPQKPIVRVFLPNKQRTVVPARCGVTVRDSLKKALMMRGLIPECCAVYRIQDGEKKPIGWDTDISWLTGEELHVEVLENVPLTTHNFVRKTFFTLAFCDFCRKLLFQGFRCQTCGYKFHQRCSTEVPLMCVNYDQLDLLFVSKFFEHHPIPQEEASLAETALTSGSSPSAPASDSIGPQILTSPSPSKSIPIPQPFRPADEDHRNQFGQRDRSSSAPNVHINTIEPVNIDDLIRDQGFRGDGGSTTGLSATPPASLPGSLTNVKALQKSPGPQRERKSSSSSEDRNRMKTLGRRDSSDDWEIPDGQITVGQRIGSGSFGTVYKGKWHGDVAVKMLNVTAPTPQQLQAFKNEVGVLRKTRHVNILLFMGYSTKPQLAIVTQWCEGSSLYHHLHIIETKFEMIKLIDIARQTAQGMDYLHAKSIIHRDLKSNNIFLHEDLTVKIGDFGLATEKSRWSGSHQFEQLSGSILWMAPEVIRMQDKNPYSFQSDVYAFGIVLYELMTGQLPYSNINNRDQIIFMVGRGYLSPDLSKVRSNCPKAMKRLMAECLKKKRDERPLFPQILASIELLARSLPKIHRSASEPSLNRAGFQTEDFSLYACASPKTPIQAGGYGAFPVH

With `CC(C)(C)c1nc(-c2cccc(NS(=O)(=O)c3c(F)cccc3F)c2)c(-c2ccnc(NCCS(C)(=O)=O)n2)s1` [Example 2, N-{3-[2-(1,1-Dimethylethyl)-5-(2-{[2-(methylsulfonyl)ethyl]amino}-4-pyrimidinyl)-1,3-thiazol-4-yl]phenyl}-2,6-difluorobenzenesulfonamide], the IC50 in experiment [1] (setting [4]) was less than 100 nM; in experiment [1] (setting [5]), less than 100 nM; in experiment [2] (setting [6]), less than 100 nM; in experiment [2] (setting [7]) it was not above 3.16 nM; in experiment [3] (setting [8]), less than 100 nM; in experiment [3] (setting [9]), less than 100 nM.

`CC(C)CNc1nccc(-c2sc(C(C)(C)C)nc2-c2cccc(NS(=O)(=O)c3cc(F)ccc3F)c2)n1` [Example 3, N-[3-(2-(1,1-Dimethylethyl)-5-{2-[(2-methylpropyl)amino]-4-pyrimidinyl}-1,3-thiazol-4-yl)phenyl]-2,5-difluorobenzenesulfonamide]: the IC50 was less than 100 nM in experiment [1] (setting [4]); less than 100 nM in experiment [1] (setting [5]); less than 100 nM in experiment [2] (setting [6]); 3.16 to 31.6 nM in experiment [2] (setting [10]); less than 100 nM in experiment [3] (setting [8]); less than 100 nM in experiment [3] (setting [9]).

With `CCOCCNc1nccc(-c2sc(C(C)C)nc2-c2ccc(F)c(NS(=O)(=O)c3c(F)cccc3F)c2)n1` [Example 4, N-{5-[5-(2-{[2-(Ethyloxy)ethyl]amino}-4-pyrimidinyl)-2-(1-methylethyl)-1,3-thiazol-4-yl]-2-fluorophenyl}-2,6-difluorobenzenesulfonamide], the IC50 was 100 to 1000 nM in experiment [1] (setting [4]); 1000 to 10000 nM in experiment [1] (setting [5]); less than 100 nM in experiment [2] (setting [6]); 31.6 to 1000 nM in experiment [2] (setting [7]); 100 to 1000 nM in experiment [3] (setting [8]); 100 to 1000 nM in experiment [3] (setting [9]).

With `CC(C)c1nc(-c2ccc(F)c(NS(=O)(=O)c3c(F)cccc3F)c2)c(-c2ccnc(NCC3CCCO3)n2)s1` (centres unmarked) [Example 5, 2,6-Difluoro-N-[2-fluoro-5-(2-(1-methylethyl)-5-{2-[(tetrahydro-2-furanylmethyl)amino]-4-pyrimidinyl}-1,3-thiazol-4-yl)phenyl]benzenesulfonamide], the IC50 is 100 to 1000 nM in experiment [1] (setting [4]); 1000 to 10000 nM in experiment [1] (setting [5]); 100 to 1000 nM in experiment [2] (setting [6]); 31.6 to 1000 nM in experiment [2] (setting [7]); 100 to 1000 nM in experiment [3] (setting [8]); 100 to 1000 nM in experiment [3] (setting [9]).

As to `CN(C)c1nc(-c2cccc(NS(=O)(=O)c3c(F)cccc3F)c2)c(-c2ccnc(N)n2)s1` [Example 112, N-{3-[5-(2-Amino-4-pyrimidinyl)-2-(dimethylamino)-1,3-thiazol-4-yl]phenyl}-2,6-difluorobenzenesulfonamide], the results for the IC50 in experiment [1] (setting [5]), in experiment [2] (setting [6]) and in experiment [2] (setting [7]) were 1000 to 10000 nM, 100 to 1000 nM and 31.6 to 1000 nM, respectively.

Take `Nc1nccc(-c2sc(C3CCOCC3)nc2-c2cccc(NS(=O)(=O)c3ccoc3)c2Cl)n1` [Example 265, N-{3-[5-(2-amino-4-pyrimidinyl)-2-(tetrahydro-2H-pyran-4-yl)-1,3-thiazol-4-yl]-2-chlorophenyl}-3-furansulfonamide]: the IC50 is not above 3.16 nM in experiment [2] (setting [7]) and less than 100 nM in experiment [3] (setting [9]).

For `Nc1nccc(-c2sc(C3CCNCC3)nc2-c2cccc(NS(=O)(=O)c3c(F)cccc3F)c2F)n1` [Example 322, N-{3-[5-(2-amino-4-pyrimidinyl)-2-(4-piperidinyl)-1,3-thiazol-4-yl]-2-fluorophenyl}-2,6-difluorobenzenesulfonamide], in experiment [2] (setting [7]), the IC50 was not above 3.16 nM.

Consider `Cc1nccc(-c2sc(C3CCNCC3)nc2-c2cccc(NS(=O)(=O)c3ccoc3)c2F)n1` [Example 323, N-{2-fluoro-3-[5-(2-methyl-4-pyrimidinyl)-2-(4-piperidinyl)-1,3-thiazol-4-yl]phenyl}-3-furansulfonamide], for which, in experiment [2] (setting [10]), the IC50 is 3.16 to 31.6 nM.

As for `Nc1nccc(-c2sc(C3CCNCC3)nc2-c2cccc(NS(=O)(=O)c3ccoc3)c2F)n1` [Example 324, N-{3-[5-(2-amino-4-pyrimidinyl)-2-(4-piperidinyl)-1,3-thiazol-4-yl]-2-fluorophenyl}-3-furansulfonamide], the IC50 in experiment [2] (setting [7]) is not above 3.16 nM.
